Molecular target: T1, human GPR120 (Homo sapiens, UniProt Q5NUL3)
T1 construct: host or cells: HEK293 cells co-expressing Gqi5
T1 sequence (Q5NUL3 1-361): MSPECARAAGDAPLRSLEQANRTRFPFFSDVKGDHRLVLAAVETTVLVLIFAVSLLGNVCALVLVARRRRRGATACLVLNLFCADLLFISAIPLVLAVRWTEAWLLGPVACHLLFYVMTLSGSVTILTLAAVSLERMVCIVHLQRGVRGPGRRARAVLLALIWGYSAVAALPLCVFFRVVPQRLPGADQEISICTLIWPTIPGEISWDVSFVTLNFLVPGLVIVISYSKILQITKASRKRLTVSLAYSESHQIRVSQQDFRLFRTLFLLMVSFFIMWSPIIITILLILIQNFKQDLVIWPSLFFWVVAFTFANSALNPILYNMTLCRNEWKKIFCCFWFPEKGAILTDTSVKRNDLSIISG
Assay: Intracellular Ca2+ assay in human GPR120 stable cell line (HEK293 co-expressing Gqi5), Flexstation
Assay type: cell-based
Conditions: % activity at 5 μM compared to the maximal activity of GW9508 at 6.7 μM (=100%); human GPR120 cells, Ca2+ fluorescence
Description: Human GPR120 stable cell line was purchased from Multispan Inc (26219 Eden Landing Road, Hayward, Calif. 94545). This GPR120 cell line was generated in HEK293 cells co-expressing Gqi5. In this cell line, the Flag epitope tag (DYKDDDDK) was fused to the amino terminus of human GPR120 protein.
The concentration of intracellular Ca^2+ was measured as described below. Human GPR120 cells were plated in 96 well plates (Poly-D-Lysine coated black/clear Plate, Greiner Bio-One) at 70,000 cells per well and cultured overnight in conditions of 37° C. and 5% CO2. A Ca^2+assay dye stock solution was prepared by adding 10 mL of assay buffer (HBSS/20 mM HEPES, pH 7.4) to FLIPR Calcium 4 Assay Bulk Kit (Molecular Devices). The 10 mL of Ca^2+ assay dye solution was prepared by further diluting 0.5 mL of Ca^2+ assay dye stock solution with 10 mL of assay buffer. The medium of the cells was removed and immediately 100 μL of the Ca^2+ assay dye solution was dispensed into each well followed by incubation at 37° C. and 5% CO2 for 50 minutes to incorporate the Ca^2+ dye into the cells. The cell plate was then placed in the Flexstation (Molecular Devices) for 20 minutes at 37° C. Compounds were dissolved in 100% DMSO and diluted to desired concentrations with assay buffer and placed in the Flexstation simultaneously with the cell plate for 20 minute incubation at 37° C. prior to reading. Fluorescence intensity was measured immediately following compound addition (25 μL/well) on the Flexstation at an excitation wavelength of 485 nm and an emission wavelength of 525 with 515 nm auto cutoff. The resulting increase in fluorescence intensities corresponds to increases in intracellular Ca^2+ levels.
Compounds were dissolved in 100% DMSO to a concentration of 20 mM to provide stock solutions. To determine activity against human GPR120, compounds were added with human GPR120 stably expressing cells (described above), at eight desired concentrations ranging from 0.00001 to 20 μM, in 96 well plates and fluorescence intensities were measured for 90 seconds with 2-second intervals. An EC50 value (concentration of the GPR120 agonist where 50% of the agonist's maximal activity is observed) was calculated using the changes (Max−Min) of fluorescence intensity.
To determine percent activity for a tested compound, the fluorescence intensity value obtained at a particular concentration were compared to the maximal fluorescence intensity value obtained for reference compound GW9508 (4-[[(3-phenoxyphenyl)methyl]amino]benzene propanoic acid; British Journal of Pharmacology 2006 148, 619-628) or the compound of Example 25. When GW9508 was used as the reference compound, the maximal activity of GW9508 at 6.7 μM was designated as 100% activity. When the compound of Example 25 was used as the reference compound, the maximal activity of the compound of Example 25 at 2.5 μM was designated as 100% activity. Typically, the GW9508 activity reached a maximum at a concentration of approximately 6.7 μM and typically the compound of Example 25 reached a maximum activity at approximately 2.5 μM.

Row | Compound | % Activity (GW9508 Reference Compound)
1 | CC(Cc1cc(F)c(OCc2cccc3c2OC(C)C3C)c(F)c1)C(=O)O (centres unmarked) [Example 40, 3-(4-((2,3-dimethyl-2,3-dihydrobenzofuran-7-yl)methoxy)-3,5-difluorophenyl)-2-methylpropanoic acid] | 95.33%
2 | CC1(C)Cc2cc(Cl)cc(COc3ccc4c(c3)CCC4CC(=O)O)c2O1 (centres unmarked) [Example 36, 2-(5-((5-chloro-2,2-dimethyl-2,3-dihydrobenzofuran-7-yl)methoxy)-2,3-dihydro-1H-inden-1-yl)acetic acid] | 122.9%
3 | CC(Cc1ccc(OCc2cc(Cl)cc3c2OC2(CCCC2)C3)cc1)C(=O)O (centres unmarked) [Example 159, 3-(4-((5-chloro-3H-spiro[benzofuran-2,1′-cyclopentane]-7-yl)methoxy)phenyl)-2-methylpropanoic acid] | 164.79%
4 | [2H]C1([2H])c2cc(F)cc(COc3ccc(CC(C)C(=O)O)cc3)c2OC1(C)C (centres unmarked) [Example 145, 3-(4-((3,3-dideuterio-5-fluoro-2,2-dimethyl-2,3-dihydrobenzofuran-7-yl)methoxy)phenyl)-2-methylpropanoic acid] | 143.69%
5 | CC(Cc1ccc(OCc2ccc(F)c3c2CC(C)(C)O3)cc1)C(=O)O (centres unmarked) [Example 91, 3-(4-((7-fluoro-2,2-dimethyl-2,3-dihydrobenzofuran-4-yl)methoxy)phenyl)-2-methylpropanoic acid] | 121.29%
6 | CC1(C)Cc2cc(F)cc(COc3ccc4c(c3)CCC4CC(=O)O)c2O1 (centres unmarked) [Example 37, 2-(5-((5-fluoro-2,2-dimethyl-2,3-dihydrobenzofuran-7-yl)methoxy)-2,3-dihydro-1H-inden-1-yl)acetic acid] | 124.7%
7 | CC(Cc1ccc(OCc2cc(F)cc3c2OC(C)(C)C3)cc1)C(=O)O (centres unmarked) [Example 16, 3-(4-((5-fluoro-2,2-dimethyl-2,3-dihydrobenzofuran-7-yl)methoxy)phenyl)-2-methylpropanoic acid] | 110.8294%
8 | CC1(C)Cc2cc(F)cc(COc3ccc4cc(C(=O)O)ccc4c3)c2O1 [Example 114, 6-((5-fluoro-2,2-dimethyl-2,3-dihydrobenzofuran-7-yl)methoxy)-2-naphthoic acid] | 123.58%
9 | CCc1cc(OCc2cc(F)cc3c2OC(C)(C)C3)ccc1CCC(=O)O [Example 134, 3-(2-ethyl-4-((5-fluoro-2,2-dimethyl-2,3-dihydrobenzofuran-7-yl)methoxy)phenyl)propanoic acid] | 151.44%
10 | CC(Cc1ccc(OCc2cc(F)cc3c2OCOC3)cc1)C(=O)O (centres unmarked) [Example 45, 3-(4-((6-fluoro-4H-benzo[d][1,3]dioxin-8-yl)methoxy)phenyl)-2-methylpropanoic acid] | 79.58%
11 | CC(Cc1ccc(OCc2cc(OC(F)(F)F)cc3c2OC(C)(C)C3)cc1)C(=O)O (centres unmarked) [Example 124, 3-(4-((2,2-dimethyl-5-(trifluoromethoxy)-2,3-dihydrobenzofuran-7-yl)methoxy)phenyl)-2-methylpropanoic acid] | 131.64%
12 | [2H]C1([2H])c2cc(Cl)cc(COc3ccc(CC(C)C(=O)O)cc3F)c2OC1(C)C (centres unmarked) [Example 146, 3-(4-((3,3-dideuterio-5-chloro-2,2-dimethyl-2,3-dihydrobenzofuran-7-yl)methoxy)-3-fluorophenyl)-2-methylpropanoic acid] | 140.72%
13 | CC(Cc1ccc(OCc2cc(F)cc3c2OC2(CCCC2)C3)cc1)C(=O)O (centres unmarked) [Example 162, 3-(4-((5-fluoro-3H-spiro[benzofuran-2,1′-cyclopentane]-7-yl)methoxy)phenyl)-2-methylpropanoic acid] | 154.48%
14 | CC1(C)Cc2c(F)ccc(COc3c(F)cc(C4CC4C(=O)O)cc3F)c2O1 (centres unmarked) [Example 27, 2-(3,5-difluoro-4-((4-fluoro-2,2-dimethyl-2,3-dihydrobenzofuran-7-yl)methoxy)phenyl)cyclopropanecarboxylic acid] | 143.8489%
15 | CC(C)Oc1cc(OCc2cc(F)cc3c2OC(C)(C)C3)ccc1CCC(=O)O [Example 115, 3-(4-((5-fluoro-2,2-dimethyl-2,3-dihydrobenzofuran-7-yl)methoxy)-2-isopropoxyphenyl)propanoic acid] | 151.78%
16 | CC(Cc1cc(F)c(OCc2cccc3c2OCC3)c(F)c1)C(=O)O (centres unmarked) [Example 3, 3-(4-((2,3-dihydrobenzofuran-7-yl)methoxy)-3,5-difluorophenyl)-2-methylpropanoic acid] | 123.7995%
17 | CC1(C)Cc2cc(F)cc(COc3ccc(CCC(=O)O)c4c3CCC4)c2O1 [Example 63, 3-(7-((5-fluoro-2,2-dimethyl-2,3-dihydrobenzofuran-7-yl)methoxy)-2,3-dihydro-1H-inden-4-yl)propanoic acid] | 95.03%

Next, values leading:

Row | % Activity (GW9508 Reference Compound) | Compound
18 | 155.23% | [2H]C([2H])(C(=O)O)C([2H])([2H])c1ccc(OCc2cc(F)cc3c2OC(C)(C)C3)c(F)c1CC [Example 243, 3-(2-ethyl-3-fluoro-4-((5-fluoro-2,2-dimethyl-2,3-dihydrobenzofuran-7-yl)methoxy)phenyl)-2,2,3,3-tetradeuteriopropanoic acid]
19 | 118.5% | CC(C)Oc1ncccc1COc1ccc2c(c1)CCC2CC(=O)O (centres unmarked) [Example 259, 2-(5-((2-isopropoxypyridin-3-yl)methoxy)-2,3-dihydro-1H-inden-1-yl)acetic acid]
20 | 144.23% | CCc1c(CCC(=O)O)ccc(OCc2cc(F)cc3c2OC(C)(C)C3)c1F [Example 216, 3-(2-ethyl-3-fluoro-4-((5-fluoro-2,2-dimethyl-2,3-dihydrobenzofuran-7-yl)methoxy)phenyl)propanoic acid]
21 | 139.95% | CC(C)Oc1ccc(Cl)cc1COc1ccc2c(c1)CCC2CC(=O)O (centres unmarked) [Example 258, 2-(5-((5-chloro-2-isopropoxybenzyl)oxy)-2,3-dihydro-1H-inden-1-yl)acetic acid]
22 | 159.06% | COc1cc(CCC(=O)O)ccc1OCc1cc(F)cc2c1OC(C)(C)C2 [Example 173, 3-(4-((5-fluoro-2,2-dimethyl-2,3-dihydrobenzofuran-7-yl)methoxy)-3-methoxyphenyl)propanoic acid]
23 | 97.04% | CC1(C)Cc2cc(F)cc(COc3c(F)cc(CC4CC4C(=O)O)cc3F)c2O1 (racemic) [Example 184, 2-(3,5-difluoro-4-((5-fluoro-2,2-dimethyl-2,3-dihydrobenzofuran-7-yl)methoxy)benzyl)cyclopropanecarboxylic acid]
24 | 142.22% | Cc1c(CCC(=O)O)ccc(OCc2cc(Cl)cc3c2OC(C)(C)C3)c1C [Example 209, 3-(4-((5-chloro-2,2-dimethyl-2,3-dihydrobenzofuran-7-yl)methoxy)-2,3-dimethylphenyl)propanoic acid]
25 | 105.44% | CC1(C)Cc2cc(Cl)cc(COc3ccc4c(c3)CC[C@@H]4CC(=O)O)c2O1 [Example 179, (R)-2-(5-((5-chloro-2,2-dimethyl-2,3-dihydrobenzofuran-7-yl)methoxy)-2,3-dihydro-1H-inden-1-yl)acetic acid]

Same assay, conditions: human GPR120 stably expressing cells, Ca2+ fluorescence (Max-Min), eight concentrations 0.00001 to 20 μM

Row | Compound | EC50
26 | CC(Cc1cc(F)c(OCc2cccc3c2OC(C)C3C)c(F)c1)C(=O)O (centres unmarked) [Example 40, 3-(4-((2,3-dimethyl-2,3-dihydrobenzofuran-7-yl)methoxy)-3,5-difluorophenyl)-2-methylpropanoic acid] | > 10 µM

From patent US20130109734A1 (Metabolex, Inc., priority 2010, published 2013)
